Like-named read-outs stand apart in the source and are kept apart here.
How the values were obtained:
Human DNA pol α = molecular target: T1, Human DNA pol α (Homo sapiens, UniProt P09884); assay: Human DNA Polymerase Inhibition Assay, pol α; type: biochemical
T1 sequence (P09884 1-1462): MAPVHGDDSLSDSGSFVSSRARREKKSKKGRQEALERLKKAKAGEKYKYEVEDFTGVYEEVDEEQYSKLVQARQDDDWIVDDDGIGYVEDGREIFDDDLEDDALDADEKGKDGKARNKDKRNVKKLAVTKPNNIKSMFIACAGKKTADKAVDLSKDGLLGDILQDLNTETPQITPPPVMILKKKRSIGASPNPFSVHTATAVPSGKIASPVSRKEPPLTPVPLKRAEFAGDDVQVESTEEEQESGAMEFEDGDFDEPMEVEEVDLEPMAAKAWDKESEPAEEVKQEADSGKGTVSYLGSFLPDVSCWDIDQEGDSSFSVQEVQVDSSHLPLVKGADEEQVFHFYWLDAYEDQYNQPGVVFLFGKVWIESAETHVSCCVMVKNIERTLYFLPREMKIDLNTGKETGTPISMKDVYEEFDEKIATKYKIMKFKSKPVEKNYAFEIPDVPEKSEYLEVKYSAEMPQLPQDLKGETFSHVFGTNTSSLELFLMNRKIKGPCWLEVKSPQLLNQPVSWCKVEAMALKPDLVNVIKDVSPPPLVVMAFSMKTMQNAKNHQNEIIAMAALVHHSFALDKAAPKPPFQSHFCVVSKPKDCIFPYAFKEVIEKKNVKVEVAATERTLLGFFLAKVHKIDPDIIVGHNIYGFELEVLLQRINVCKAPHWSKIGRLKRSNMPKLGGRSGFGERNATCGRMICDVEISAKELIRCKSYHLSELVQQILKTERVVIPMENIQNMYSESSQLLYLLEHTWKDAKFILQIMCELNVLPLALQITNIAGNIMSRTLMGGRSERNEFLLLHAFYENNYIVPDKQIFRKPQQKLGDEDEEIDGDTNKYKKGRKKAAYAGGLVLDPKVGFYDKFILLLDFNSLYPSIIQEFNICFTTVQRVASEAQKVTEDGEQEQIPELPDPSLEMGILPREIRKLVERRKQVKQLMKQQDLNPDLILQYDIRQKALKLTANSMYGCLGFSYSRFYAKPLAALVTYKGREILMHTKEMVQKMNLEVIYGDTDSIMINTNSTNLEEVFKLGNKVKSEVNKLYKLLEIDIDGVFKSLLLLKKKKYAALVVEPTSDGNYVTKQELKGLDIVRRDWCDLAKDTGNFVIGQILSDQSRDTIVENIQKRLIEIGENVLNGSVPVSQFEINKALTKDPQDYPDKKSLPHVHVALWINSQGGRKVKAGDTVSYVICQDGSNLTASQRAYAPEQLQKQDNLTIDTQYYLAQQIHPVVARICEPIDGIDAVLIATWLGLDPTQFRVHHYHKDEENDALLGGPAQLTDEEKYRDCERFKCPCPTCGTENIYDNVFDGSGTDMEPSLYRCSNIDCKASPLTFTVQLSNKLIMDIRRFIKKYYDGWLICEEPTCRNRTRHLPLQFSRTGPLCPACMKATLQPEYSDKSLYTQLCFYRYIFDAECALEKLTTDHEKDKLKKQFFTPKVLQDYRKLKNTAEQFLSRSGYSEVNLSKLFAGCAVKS

Human DNA pol γ = molecular target: T2, Human DNA pol γ (Homo sapiens, UniProt P54098); assay: Human DNA Polymerase Inhibition Assay, pol γ; type: biochemical
T2 sequence (P54098 1-1239): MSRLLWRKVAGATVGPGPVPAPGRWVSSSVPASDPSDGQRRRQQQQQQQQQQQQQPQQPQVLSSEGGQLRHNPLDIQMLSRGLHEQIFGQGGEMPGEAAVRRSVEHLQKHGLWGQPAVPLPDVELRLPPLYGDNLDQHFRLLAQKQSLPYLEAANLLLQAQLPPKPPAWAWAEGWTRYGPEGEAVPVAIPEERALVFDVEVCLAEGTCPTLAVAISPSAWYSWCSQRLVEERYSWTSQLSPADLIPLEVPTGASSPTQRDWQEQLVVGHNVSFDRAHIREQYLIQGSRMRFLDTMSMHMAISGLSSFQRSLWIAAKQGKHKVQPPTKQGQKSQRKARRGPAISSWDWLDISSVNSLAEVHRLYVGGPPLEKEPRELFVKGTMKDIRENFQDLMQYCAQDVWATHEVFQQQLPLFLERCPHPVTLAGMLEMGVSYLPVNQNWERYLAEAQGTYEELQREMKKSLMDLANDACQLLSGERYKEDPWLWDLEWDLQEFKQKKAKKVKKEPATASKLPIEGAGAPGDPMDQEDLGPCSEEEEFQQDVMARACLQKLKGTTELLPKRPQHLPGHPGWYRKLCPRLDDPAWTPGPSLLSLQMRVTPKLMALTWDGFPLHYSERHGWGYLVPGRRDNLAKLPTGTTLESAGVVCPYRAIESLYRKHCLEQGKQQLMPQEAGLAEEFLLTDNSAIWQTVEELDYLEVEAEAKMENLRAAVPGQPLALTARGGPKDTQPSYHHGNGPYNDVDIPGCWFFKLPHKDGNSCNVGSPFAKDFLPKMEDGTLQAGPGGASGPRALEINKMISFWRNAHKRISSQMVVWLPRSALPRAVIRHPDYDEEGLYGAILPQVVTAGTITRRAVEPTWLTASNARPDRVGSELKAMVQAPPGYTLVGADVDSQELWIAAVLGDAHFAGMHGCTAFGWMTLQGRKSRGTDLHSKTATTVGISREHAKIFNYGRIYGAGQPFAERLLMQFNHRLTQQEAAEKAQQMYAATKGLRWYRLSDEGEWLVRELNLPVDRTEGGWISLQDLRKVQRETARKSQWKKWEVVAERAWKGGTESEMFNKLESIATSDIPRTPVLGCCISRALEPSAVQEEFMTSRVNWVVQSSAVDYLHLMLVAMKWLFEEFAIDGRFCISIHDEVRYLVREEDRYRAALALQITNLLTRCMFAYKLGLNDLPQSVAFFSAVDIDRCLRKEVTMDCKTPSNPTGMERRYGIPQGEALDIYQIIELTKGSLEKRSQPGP

Dengue Type 2 = assay: Anti-Dengue Virus Cytoprotection Assay, Dengue Type 2
[1] = Anti-Dengue assay, toxicity (XTT) in Vero cells; settings: monkey
[2] = Anti-Dengue assay, toxicity (XTT) in Huh-7 cells; settings: human

IC50 (Human DNA pol α) [µM]	IC50 (Human DNA pol γ) [µM]	SMILES	EC50 (Dengue Type 2; Huh-7, read-out: Dengue Type 2 Huh-7 Cells (EC50 uM)) [µM]	EC50 (Dengue Type 2; Vero, read-out: Dengue Type 2 Vero Cells (EC50 uM)) [µM]	CC50 [1] [µM]	CC50 [2] [µM]
> 1000	> 1000	C[C@@]1(O)[C@H](O)[C@@H](COP(=O)(O)OP(=O)(O)OP(=O)(O)O)O[C@H]1n1ccc(=O)[nH]c1=S	–	–	–	–
–	–	CC(C)OC(=O)[C@H](C)NP(=O)(OC[C@H]1O[C@@H](n2ccc(=O)[nH]c2=S)[C@](C)(O)[C@@H]1O)Oc1ccccc1 (stereo partly drawn) [drawing 474]	5.1	2.02	> 100	> 100

Reference: patent EP4817687A2, “NUCLEOTIDE AND NUCLEOSIDE THERAPEUTIC COMPOSITIONS AND USES RELATED THERETO” (Emory University, priority 2013, dated 2015)
